Patent publication US20150080438A1, “6,7-Dihydro-5H-benzo[7]annulene derivatives, processes for their preparation, pharmaceutical products comprising them and their use for preparing medicaments” (Bayer Intellectual Property GmbH, priority 2011, published 2015)

Molecular target: T1, oestrogen receptor (ER) (Homo sapiens, UniProt P03372)
T1 construct: These MVLN cells express, along with the functional oestrogen receptor (ER), a reporter construct; endogenous in cells; host or cells: MVLN cells (MCF7 derivative with ER-responsive luciferase reporter)
T1 sequence (P03372 1-595): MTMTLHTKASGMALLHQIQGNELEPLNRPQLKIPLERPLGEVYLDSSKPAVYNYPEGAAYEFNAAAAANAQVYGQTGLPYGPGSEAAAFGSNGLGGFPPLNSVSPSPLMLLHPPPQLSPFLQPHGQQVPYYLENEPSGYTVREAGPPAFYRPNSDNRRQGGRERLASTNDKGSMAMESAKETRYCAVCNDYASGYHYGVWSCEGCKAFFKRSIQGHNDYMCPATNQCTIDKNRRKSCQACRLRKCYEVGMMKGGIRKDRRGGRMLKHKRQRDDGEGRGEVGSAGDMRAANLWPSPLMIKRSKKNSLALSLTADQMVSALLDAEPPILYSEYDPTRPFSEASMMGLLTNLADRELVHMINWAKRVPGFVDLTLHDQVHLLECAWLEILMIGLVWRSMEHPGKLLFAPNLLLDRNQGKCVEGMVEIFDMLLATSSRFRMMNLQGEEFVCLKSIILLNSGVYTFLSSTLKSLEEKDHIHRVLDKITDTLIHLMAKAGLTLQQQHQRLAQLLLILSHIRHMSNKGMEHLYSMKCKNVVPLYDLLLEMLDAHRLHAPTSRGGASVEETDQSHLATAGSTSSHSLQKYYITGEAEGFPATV
Test: Anti-oestrogenic action in MVLN cells (inhibition of estradiol-induced luciferase, transactivation antagonism)
Format: cell-based
Settings: inhibition of estradiol-induced luciferase activity, read-out: Anti-oestrogenic action in vitro: MVLN transactivation antagonism IC50
Procedure, shortened: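 MCF7-derived MVLN cells carrying an ER-driven luciferase reporter; test compounds applied with estradiol, and anti-oestrogenic action scored as inhibition of the estradiol-induced luciferase signal.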

Row | SMILES | IC50
1 | CN(CCCCCCC1=C(c2ccccc2)CCCc2cc(O)ccc21)CCCS(=O)(=O)CCCC(F)(F)C(F)(F)F [Example 63, 9-[6-(Methyl{3-[(4,4,5,5,5-pentafluoropentyl)sulphonyl]propyl}amino)hexyl]-8-phenyl-6,7-dihydro-5H-benzo[7]annulen-3-ol] | 9 nM
2 | CCN(CCCCCCC1=C(c2cccc(O)c2)CCCc2cc(O)ccc21)CCCS(=O)(=O)CCC(F)(F)F [Example 65, 9-[6-(Ethyl{3-[(3,3,3-trifluoropropyl)sulphonyl]propyl}amino)hexyl]-8-(3-hydroxyphenyl)-6,7-dihydro-5H-benzo[7]annulen-3-ol] | 6 nM
3 | CCN(CCCCCCC1=C(c2ccccc2)CCCc2cc(O)ccc21)CCCS(=O)(=O)CCCC(F)(F)C(F)(F)F [Example 69, 9-[6-(Ethyl{3-[(4,4,5,5,5-pentafluoropentyl)sulphonyl]propyl}amino)hexyl]-8-phenyl-6,7-dihydro-5H-benzo[7]annulen-3-ol] | 6 nM
4 | O=S(=O)(CCCN(CCO)CCCCCCC1=C(c2ccccc2)CCCc2cc(O)ccc21)CCCC(F)(F)C(F)(F)F [Example 71, 9-{6-[(2-Hydroxyethyl){3-[(4,4,5,5,5-pentafluoropentyl)sulphonyl]propyl}amino]hexyl}-8-phenyl-6,7-dihydro-5H-benzo[7]annulen-3-ol] | 13 nM
5 | O=S(=O)(CCCN(CCCO)CCCCCCC1=C(c2ccccc2)CCCc2cc(O)ccc21)CCCC(F)(F)C(F)(F)F [Example 73, 9-{6-[(3-Hydroxypropyl){3-[(4,4,5,5,5-pentafluoropentyl)sulphonyl]propyl}amino]hexyl}-8-phenyl-6,7-dihydro-5H-benzo[7]annulen-3-ol] | 17 nM
6 | CC(C)(O)CN(CCCCCCC1=C(c2ccccc2)CCCc2cc(O)ccc21)CCCS(=O)(=O)CCCC(F)(F)C(F)(F)F [Example 75, 9-{6-[(2-Hydroxy-2-methylpropyl){3-[(4,4,5,5,5-pentafluoropentyl)sulphonyl]propyl}amino]hexyl}-8-phenyl-6,7-dihydro-5H-benzo[7]annulen-3-01] | 14 nM
7 | CCN(CCCCCCC1=C(c2ccccc2)CCCc2cc(O)ccc21)CCCS(=O)(=O)CCC(F)(F)F [Example 77, 9-[6-(Ethyl{3-[(3,3,3-trifluoropropyl)sulphonyl]propyl}amino)hexyl]-8-phenyl-6,7-dihydro-5H-benzo[7]annulen-3-ol] | 61 nM
8 | O=S(=O)(CCCN(CCCO)CCCCCCC1=C(c2ccccc2)CCCc2cc(O)ccc21)CCC(F)(F)F [Example 81, 9-{6-[(3-Hydroxypropyl){3-[(3,3,3-trifluoropropyl)sulphonyl]propyl}amino]hexyl}-8-phenyl-6,7-dihydro-5H-benzo[7]annulen-3-ol] | 39 nM
9 | O=S(=O)(CCCN(CCO)CCCCCCC1=C(c2cccc(O)c2)CCCc2cc(O)ccc21)CCCC(F)(F)C(F)(F)F [Example 91, 9-{6-[(2-Hydroxyethyl){3-[(4,4,5,5,5-pentafluoropentyl)sulphonyl]propyl}amino]hexyl}-8-(3-hydroxyphenyl)-6,7-dihydro-5H-benzo[7]annulen-3-ol] | 3 nM
10 | O=S(=O)(CCCN(CCCO)CCCCCCC1=C(c2cccc(O)c2)CCCc2cc(O)ccc21)CCC(F)(F)F [Example 99, 8-(3-Hydroxyphenyl)-9-{6-[(3-hydroxypropyl){3-[(3,3,3-trifluoropropyl)sulphonyl]propyl}amino]hexyl}-6,7-dihydro-5H-benzo[7]annulen-3-ol] | 8 nM
11 | CN(CCCCCCC1=C(c2ccc(F)c(O)c2)CCCc2cc(O)c(F)cc21)CCCS(=O)(=O)CCCC(F)(F)C(F)(F)F [Example 101, 2-Fluoro-8-(4-fluoro-3-hydroxyphenyl)-9-[6-(methyl{3-[(4,4,5,5,5-pentafluoropentyl)sulphonyl]propyl}amino)hexyl]-6,7-dihydro-5H-benzo[7]annulen-3-ol] | 3 nM
12 | CN(CCCCCCC1=C(c2ccccc2)CCCc2c1ccc(O)c2Cl)CCCCS(=O)(=O)CCCC(F)(F)C(F)(F)F [Example 103, 4-Chloro-9-[6-(methyl{4-[(4,4,5,5,5-pentafluoropentyl)sulphonyl]butyl}amino)hexyl]-8-phenyl-6,7-dihydro-5H-benzo[7]annulen-3-ol] | 26 nM
13 | COCCN(CCCCCCC1=C(c2ccc(F)c(O)c2)CCCc2cc(O)ccc21)CCCS(=O)(=O)CCCC(F)(F)C(F)(F)F [Example 105, 8-(4-Fluoro-3-hydroxyphenyl)-9-{6-[(2-methoxyethyl){3-[(4,4,5,5,5-pentafluoropentyl)sulphonyl]propyl}amino]hexyl}-6,7-dihydro-5H-benzo[7]annulen-3-ol] | 2 nM
14 | COCCN(CCCCCCC1=C(c2cccc(O)c2)CCCc2cc(O)ccc21)CCCS(=O)(=O)CCCC(F)(F)C(F)(F)F [Example 106, 8-(3-Hydroxyphenyl)-9-{6-[(2-methoxyethyl){3-[(4,4,5,5,5-pentafluoropentyl)sulphonyl]propyl}amino]hexyl}-6,7-dihydro-5H-benzo[7]annulen-3-ol] | 1 nM
15 | COCCCN(CCCCCCC1=C(c2cccc(O)c2)CCCc2cc(O)ccc21)CCCS(=O)(=O)CCCC(F)(F)C(F)(F)F [Example 107, 8-(3-Hydroxyphenyl)-9-{6-[(3-methoxypropyl){3-[(4,4,5,5,5-pentafluoropentyl)sulphonyl]propyl}amino]hexyl}-6,7-dihydro-5H-benzo[7]annulen-3-ol] | 3 nM
16 | CN(CCCCCCC1=C(c2ccccc2)CCCc2c1ccc(O)c2Cl)CCCCS(=O)(=O)CCC(F)(F)F [Example 109, 4-Chloro-9-[6-(methyl{4-[(3,3,3-trifluoropropyl)sulphonyl]butyl}amino)hexyl]-8-phenyl-6,7-dihydro-5H-benzo[7]annulen-3-ol] | 87 nM

Next, values leading:

Row | IC50 | SMILES
17 | 3 nM | CN(CCCCCCC1=C(c2ccccc2)CCCc2cc(O)ccc21)CCCCS(=O)(=O)CCCC(F)(F)C(F)(F)F [Example 67, 9-[6-(Methyl{4-[(4,4,5,5,5-pentafluoropentyl)sulphonyl]butyl}amino)hexyl]-8-phenyl-6,7-dihydro-5H-benzo[7]annulen-3-ol]
18 | 9 nM | O=S(=O)(CCCN(CCO)CCCCCCC1=C(c2ccccc2)CCCc2cc(O)ccc21)CCC(F)(F)F [Example 79, 9-{6-[(2-Hydroxyethyl){3-[(3,3,3-trifluoropropyl)sulphonyl]propyl}amino]hexyl}-8-phenyl-6,7-dihydro-5H-benzo[7]annulen-3-ol]
19 | 7 nM | CC(C)(O)CN(CCCCCCC1=C(c2ccccc2)CCCc2cc(O)ccc21)CCCS(=O)(=O)CCC(F)(F)F [Example 83, 9-{6-[(2-Hydroxy-2-methylpropyl){3-[(3,3,3-trifluoropropyl)sulphonyl]propyl}amino]hexyl}-8-phenyl-6,7-dihydro-5H-benzo[7]annulen-3-ol]
20 | 40 nM | CN(CCCCCC1=C(c2ccccc2)CCCc2cc(O)ccc21)CCCCS(=O)(=O)CCCC(F)(F)C(F)(F)F [Example 85, 9-[5-(Methyl{4-[(4,4,5,5,5-pentafluoropentyl)sulphonyl]butyl}amino)pentyl]-8-phenyl-6,7-dihydro-5H-benzo[7]annulen-3-ol]
21 | 2 nM | CCN(CCCCCCC1=C(c2cccc(O)c2)CCCc2cc(O)ccc21)CCCS(=O)(=O)CCCC(F)(F)C(F)(F)F [Example 90, 9-[6-(Ethyl{3-[(4,4,5,5,5-pentafluoropentyl)sulphonyl]propyl}amino)hexyl]-8-(3-hydroxyphenyl)-6,7-dihydro-5H-benzo[7]annulen-3-ol]
22 | 1 nM | O=S(=O)(CCCN(CCCO)CCCCCCC1=C(c2cccc(O)c2)CCCc2cc(O)ccc21)CCCC(F)(F)C(F)(F)F [Example 92, 8-(3-Hydroxyphenyl)-9-{6-[(3-hydroxypropyl){3-[(4,4,5,5,5-mpentafluoropentyl)sulphonyl]propyl}amino]hexyl}-6,7-dihydro-5H-benzo[7]annulen-3-ol]
23 | 1 nM | CC(C)(O)CN(CCCCCCC1=C(c2cccc(O)c2)CCCc2cc(O)ccc21)CCCS(=O)(=O)CCCC(F)(F)C(F)(F)F [Example 93, 9-{6-[(2-Hydroxy-2-methylpropyl){3-[(4,4,5,5,5-pentafluoropentyl)sulphonyl]propyl}amino]hexyl}-8-(3-hydroxyphenyl)-6,7-dihydro-5H-benzo[7]annulen-3-ol]
24 | 3 nM | O=S(=O)(CCCN(CCO)CCCCCCC1=C(c2cccc(O)c2)CCCc2cc(O)ccc21)CCC(F)(F)F [Example 98, 9-{6-[(2-Hydroxyethyl){3-[(3,3,3-trifluoropropyl)sulphonyl]propyl}amino]hexyl}-8-(3-hydroxyphenyl)-6,7-dihydro-5H-benzo[7]annulen-3-ol]
25 | 3 nM | CC(C)(O)CN(CCCCCCC1=C(c2cccc(O)c2)CCCc2cc(O)ccc21)CCCS(=O)(=O)CCC(F)(F)F [Example 100, 9-{6-[(2-Hydroxy-2-methylpropyl){3-[(3,3,3-trifluoropropyl)sulphonyl]propyl}amino]hexyl}-8-(3-hydroxyphenyl)-6,7-dihydro-5H-benzo[7]annulen-3-ol]
